# From PubChem BioAssay AID1963849 (Molecular Pharmacology Branch, DTP, NCI, 2024)
# pIC50: −log10 of the molar value.
# Tested on: 299254-011-R-J1-PDC complex spheroid viability
# Assay: Anticancer human tumor 299254-011-R-J1-PDC patient-derived melanoma cell line growth inhibition [POLQ]
# Conditions: for pIC50: curve of first compound; for viability, T/C: stronger effect = lower value
# Experimental: Multicellular complex tumor spheroid response to Polymerase (POL) inhibitors (novobiocin, ART-558, RP6685) in combination with a variety of drugs and investigational agents in selected tumor cell lines
# The POL inhibitors (novobiocin, ART-558, and RP6685) were evaluated both individually and in combination with standard of care and investigational anticancer small molecules within a complex spheroid model of solid tumors. . Complex spheroids include a stromal component modeled by human endothelial cells (HUVEC) and fibroblasts modeled by human mesenchymal stem cells (MSCs). The concentration ranges selected for each drug and investigational agent were based upon clinically achievable concentrations if the clinical Cmax of the agent was known.
# Compounds. The drugs and investigational agents: novobiocin (NSC847541), ART-558 (NSC835418), RP-6685 (NSC848927), peposertib (NSC802822), ceralasertib (NSC780249), elimusertib (NSC800525), camonsertib (NSC841442), AZD-1390 (NSC803789), olaparib (NSC753686), talazoparib (NSC767125), rucaparib (NSC756644), sotorasib (NSC818433), MRTX-1133 (NSC836407), SN-38 (NSC673596), topotecan (NSC609699), epotoside (NSC141540), doxorubicin (NSC123127), gemcitabine (NSC613327), 5-fluorouracil (NSC19893), paclitaxel (NSC125973), vemurafenib (NSC761431), MSA-2 (NSC828583), SN-011 (NSC837082), adavosertib (NSC754352), prexasertib (NSC758257), carboplatin (NSC241240) and oxaliplatin (NSC266046), were obtained from the National Cancer Institute (NCI) Developmental Therapeutics Program Chemical Repository (21). The FDA-approved anticancer drug set is available from the Developmental Therapeutics Program at https://dtp.cancer.gov/organization/dscb/obtaining/. […] The stock solutions were prepared in dimethyl sulfoxide (DMSO, Sigma-Aldrich, St. Louis, MO, cat. D2650), except for the platinum compounds which were prepared in saline (Quality Biological, Gaithersburg, MD, cat. 114-055-101), at 800-fold the tested concentration and stored at -70 degrees C prior to their use. All drugs and investigational agents were tested over a range starting from a high concentration at or near the clinical Cmax and decreasing in half-log increments. If the clinical Cmax for an agent had not been determined, the highest concentration tested was 10 microM, except for SN-38, which was tested at a high concentration of 1 microM.
# Cell Culture. All cells were maintained in an incubator at 37 degrees C and 5% CO2 with 95% humidity. The PDC lines were cultured according to standard operating procedures established by the NCI PDMR (https://pdmr.cancer.gov). Table 3 of the manuscript, lists the cell lines along with the number of the three cell types plated to form the mct-spheroids and media for tumor cell growth. After thawing, all PDC lines, except 997537-175-T-J1-PDC and 415267-285-R-J2-PDC, were cultured in Matrigel-coated flasks prepared with a working solution of 1X Ham's F-12 nutrient mix, without supplementation (Thermo Fisher Scientific, cat. 11765054), 100 U/mL penicillin-streptomycin (Thermo Fisher Scientific, cat. 15140122), and 2.5% Matrigel (Corning Inc., Corning, NY, cat. 354248) for the first three passages. The two PDC lines 997537-175-T-J1-PDC and 415267-285-R-J2-PDC were cultured on uncoated flasks. The 857933-349-R-J2-PDC line was cultured in 6C/Colon 1B media containing advanced DMEM/F-12 (Thermo Fisher Scientific, cat. 12634028), 10 mM HEPES (Thermo Fisher Scientific, cat. 15630080), 1X GlutaMAX supplement (Thermo Fisher Scientific, cat. 35050061), 0.1 mg/mL primocin (InvivoGen, San Diego, CA, cat. ant-pm-2), 10% defined fetal bovine serum, heat inactivated (HyClone Laboratories Inc., Logan, UT, cat. SH30070.03HI), 50% L-WRN conditioned media (ATCC, cat. CRL-3276), 1.25 mM N-Acetyl-L-cysteine (Sigma-Aldrich, cat. A9165), 10 mM nicotinamide (Sigma-Aldrich, cat. N0636), 1X B-27 supplement (Thermo Fisher Scientific, cat. 17504044), 1X N-2 supplement (Thermo Fisher Scientific, cat. […]
# 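Note: spheroids exposed to drugs for one week before measurement.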
# 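Throughout, for viability, T/C: percent viability relative to DMSO vehicle control taken as 100%.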
smiles,measurement,setting,value
C#Cc1c(F)ccc2cc(O)cc(-c3ncc4c(N5CC6CCC(C5)N6)nc(OCC56CCCN5CC(F)C6)nc4c3F)c12 (configuration not stated) + COC1C(OC(N)=O)C(O)C(Oc2ccc3c(O)c(NC(=O)c4ccc(O)c(CC=C(C)C)c4)c(=O)oc3c2C)OC1(C)C,pIC50,second compound 0.0316 µM,< 5.00
same,pIC50,second compound 0.1 µM,< 5.00
same,pIC50,second compound 0.316 µM,< 5.00
same,pIC50,second compound 1 µM,< 5.00
same,pIC50,second compound 3.16 µM,< 5.00
same,pIC50,second compound 10 µM,< 5.00
same,"viability, T/C","second compound 0.0316 µM, first compound 0.0316 µM",87.2%
same,"viability, T/C","second compound 0.0316 µM, first compound 0.1 µM",125%
same,"viability, T/C","second compound 0.0316 µM, first compound 0.316 µM",105%
same,"viability, T/C","second compound 0.0316 µM, first compound 1 µM",115%
same,"viability, T/C","second compound 0.0316 µM, first compound 3.16 µM",96.4%
same,"viability, T/C","second compound 0.0316 µM, first compound 10 µM",79.7%
same,"viability, T/C","second compound 0.1 µM, first compound 0.0316 µM",102%
same,"viability, T/C","second compound 0.1 µM, first compound 0.1 µM",99.2%
same,"viability, T/C","second compound 0.1 µM, first compound 0.316 µM",99.2%
same,"viability, T/C","second compound 0.1 µM, first compound 1 µM",114%
same,"viability, T/C","second compound 0.1 µM, first compound 3.16 µM",94.8%
same,"viability, T/C","second compound 0.1 µM, first compound 10 µM",80.9%
same,"viability, T/C","second compound 0.316 µM, first compound 0.0316 µM",110%
same,"viability, T/C","second compound 0.316 µM, first compound 0.1 µM",104%
same,"viability, T/C","second compound 0.316 µM, first compound 0.316 µM",107%
same,"viability, T/C","second compound 0.316 µM, first compound 1 µM",114%
same,"viability, T/C","second compound 0.316 µM, first compound 3.16 µM",105%
same,"viability, T/C","second compound 0.316 µM, first compound 10 µM",72.7%
same,"viability, T/C","second compound 1 µM, first compound 0.0316 µM",104%
same,"viability, T/C","second compound 1 µM, first compound 0.1 µM",98.2%
same,"viability, T/C","second compound 1 µM, first compound 0.316 µM",105%
same,"viability, T/C","second compound 1 µM, first compound 1 µM",136%
same,"viability, T/C","second compound 1 µM, first compound 3.16 µM",102%
same,"viability, T/C","second compound 1 µM, first compound 10 µM",79.4%
same,"viability, T/C","second compound 3.16 µM, first compound 0.0316 µM",114%
same,"viability, T/C","second compound 3.16 µM, first compound 0.1 µM",109%
same,"viability, T/C","second compound 3.16 µM, first compound 0.316 µM",106%
same,"viability, T/C","second compound 3.16 µM, first compound 1 µM",109%
same,"viability, T/C","second compound 3.16 µM, first compound 3.16 µM",101%
same,"viability, T/C","second compound 3.16 µM, first compound 10 µM",70.6%
same,"viability, T/C","second compound 10 µM, first compound 0.0316 µM",93.9%
same,"viability, T/C","second compound 10 µM, first compound 0.1 µM",99.7%
same,"viability, T/C","second compound 10 µM, first compound 0.316 µM",111%
same,"viability, T/C","second compound 10 µM, first compound 1 µM",101%
same,"viability, T/C","second compound 10 µM, first compound 3.16 µM",111%
same,"viability, T/C","second compound 10 µM, first compound 10 µM",69.2%
